We go through one molecule from publication PMC4010497, “Synthesis and Evaluation of Fluorine-Substituted Phenyl Acetate Derivatives as Ultra-Short Recovery Sedative/Hypnotic Agents” (PLoS ONE, 2014).

Data set [1] relates to rat. In kind it is in vivo. As for the experimental part: All tests were performed during the light period. Groups of mice, rats and rabbits were injected intravenously (lateral tail vein) over 10 s with each dose of test compound, placed in separate boxes to reduce external stimuli and assessed for the loss of righting reflex. Dosing was performed using mg/kg scheme. A set of dose levels was chosen, and depending on whether the loss of righting reflex was observed, extra doses were introduced to provide data for the loss of righting reflex over a narrow dose range to allow potency calculations. From the percentage of mice, rats and rabbits in each group showing loss of righting reflex for ≥30 s, a probit analysis (SAS Institute) was performed to obtain an HD50 for each compound with 95% confidence limits.
Immediately following the injection, the mice, rats and rabbits were tested for loss of righting reflex. […] Once a loss was observed, the interval between the loss of righting reflex and the return to righting reflex was recorded. The anesthetized animals recovered righting reflexes spontaneously. To compare the duration of LORR of each compound at equipotent doses, groups of mice, rats and rabbits were injected with each compound at 2× HD50 over 10 s.
(§1) Time to walk was the time required after righting before mice and rabbits walked from the center to the periphery of a 30-cm diameter dise.
The rotarod test was conducted to evaluate the recovery to the motor coordination. Before the LORR test, mice were trained for 2 consecutive days. Trained mice could maintain their balance on rod for more than 2 mins. After the mice could walk from the center to the periphery of a 30-cm diameter dise, they were put on the rotarod. Mice were classified as behavioral recovery when, on being placed on the rod, they could maintain their balance for 20 s. The time to behavioral recovery was the time required after mice walked from the centre to the periphery of a 30-cm diameter disc before they could maintain their balance on rod for 20 s.

In data set [2] the test system is rat. As to the kind of experiment: Therapeutic index (LD50/HD50) in rat. The format is in vivo. The protocol:
The LD50 was determined in mice, rats, and rabbits and the TI was calculated as LD50/HD50.

In data set [3] the test system is rabbits. As to the kind of experiment: Hypnotic potency and recovery after IV bolus in rabbits. The format is in vivo, rabbit. As for the experimental part: All tests were performed during the light period. Groups of mice, rats and rabbits were injected intravenously (lateral tail vein) over 10 s with each dose of test compound, placed in separate boxes to reduce external stimuli and assessed for the loss of righting reflex. Dosing was performed using mg/kg scheme. A set of dose levels was chosen, and depending on whether the loss of righting reflex was observed, extra doses were introduced to provide data for the loss of righting reflex over a narrow dose range to allow potency calculations.
Immediately following the injection, the mice, rats and rabbits were tested for loss of righting reflex. […] Once a loss was observed, the interval between the loss of righting reflex and the return to righting reflex was recorded. […] To compare the duration of LORR of each compound at equipotent doses, groups of mice, rats and rabbits were injected with each compound at 2× HD50 over 10 s.
as §1

The test system of data set [4] is rabbits. Description: Hypnosis in response to IV infusion in rabbits. In kind it is in vivo, rabbit. As for the experimental part: Induction of hypnosis in rabbits was achieved using 2× HD50 dose of test compound, and immediately after induction, infusion via the tail vein was commenced at half the HD50 dosage per min. the infusion rate was maintained for 20 min or 1 h or 3 h later. The depth of hypnosis was monitored by the magnitude of a withdrawal reflex to intermittent paw pinch provided by a pair of forceps.

In data set [5] the target is T1, human GABAA receptor α1, β2 and γ2 (CHO-K1 cells) (Homo sapiens, UniProt P14867+P18507+P47870).
T1 construct: expressed in transfected cells; host or cells: CHO-K1 cells, stably transfected
T1 sequence (P14867 28-456): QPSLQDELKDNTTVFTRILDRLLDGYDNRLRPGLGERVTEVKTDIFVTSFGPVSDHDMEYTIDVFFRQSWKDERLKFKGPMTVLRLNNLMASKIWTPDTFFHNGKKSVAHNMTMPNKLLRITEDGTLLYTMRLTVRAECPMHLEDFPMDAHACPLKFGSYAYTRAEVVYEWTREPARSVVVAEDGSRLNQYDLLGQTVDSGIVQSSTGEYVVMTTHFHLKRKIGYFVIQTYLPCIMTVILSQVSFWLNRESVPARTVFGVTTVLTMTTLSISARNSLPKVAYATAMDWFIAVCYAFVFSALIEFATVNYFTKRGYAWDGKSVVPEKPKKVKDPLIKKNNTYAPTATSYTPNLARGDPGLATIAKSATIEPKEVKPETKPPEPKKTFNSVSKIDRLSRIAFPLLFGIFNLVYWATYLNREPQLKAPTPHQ
T1 sequence (P47870 25-512 limits assumed): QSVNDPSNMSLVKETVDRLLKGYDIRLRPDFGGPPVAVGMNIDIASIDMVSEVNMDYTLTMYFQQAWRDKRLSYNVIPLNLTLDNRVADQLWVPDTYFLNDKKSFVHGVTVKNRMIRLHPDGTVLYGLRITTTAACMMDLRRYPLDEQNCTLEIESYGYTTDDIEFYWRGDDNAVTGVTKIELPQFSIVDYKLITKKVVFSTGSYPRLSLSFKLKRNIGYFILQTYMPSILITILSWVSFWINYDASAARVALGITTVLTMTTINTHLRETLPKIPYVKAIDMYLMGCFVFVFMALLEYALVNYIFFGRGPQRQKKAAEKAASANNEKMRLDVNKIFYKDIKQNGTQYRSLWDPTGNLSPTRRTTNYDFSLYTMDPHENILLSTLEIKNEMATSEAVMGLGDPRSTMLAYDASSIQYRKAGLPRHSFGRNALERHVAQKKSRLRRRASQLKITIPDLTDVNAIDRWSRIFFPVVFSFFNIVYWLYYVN
T1 sequence (P18507 40-475): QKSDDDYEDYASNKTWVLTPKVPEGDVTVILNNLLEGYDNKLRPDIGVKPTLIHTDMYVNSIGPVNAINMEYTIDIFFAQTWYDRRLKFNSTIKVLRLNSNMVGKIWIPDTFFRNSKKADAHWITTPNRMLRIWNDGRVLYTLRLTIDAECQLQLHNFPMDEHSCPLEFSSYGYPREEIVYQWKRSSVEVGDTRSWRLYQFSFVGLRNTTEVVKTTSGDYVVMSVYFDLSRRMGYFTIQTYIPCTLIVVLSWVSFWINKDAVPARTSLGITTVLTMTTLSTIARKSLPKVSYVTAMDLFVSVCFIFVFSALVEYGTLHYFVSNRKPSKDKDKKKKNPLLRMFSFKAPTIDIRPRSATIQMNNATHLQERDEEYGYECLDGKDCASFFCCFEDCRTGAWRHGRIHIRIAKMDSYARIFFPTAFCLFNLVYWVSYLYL
Description: cell-based. The settings on record: GABAA (α1β2γ2) CHO-K1 cell. As for the experimental part:
Chinese hamster ovary (CHO)-K1 cells transfected stably with human GABAA receptor α1, β2 and γ2 subunit cDNAs were used. The cells were plated onto collagen-coated 35-mm cell culture dishes at low density for 1–7 days before recording. Test solutions were prepared in the extracellular solution on the day the patch-clamp assay was performed. The intracellular solution consisted of 22 mM KCl, 110 mM K-aspartate, 8 mM NaCl, 1 mM MgCl2, 1 mM CaCl2, 10 mM ethylene glycol tetraacetic acid, 5 mM Na2ATP, 10 mM hydroxyethyl piperazineethanesulfonic acid (HEPES) (adjusted to pH 7.2 using KOH), while the extracellular solution contained 145 mM NaCl, 4 mM KCl, 2 mM CaCl2, 2 mM MgCl2, 10 mM HEPES (adjusted to pH 7.4 using NaOH). The assay was performed at room temperature. Cells were maintained at −70 mV and the potentiation effect was assessed by co-application of the test compound with EC20 of muscimol after the cell was pre-incubated with the test compound for 45 s. GABA EC20 measured individually in each cell. The amplitude of the Cl− current in response to muscimol and/or test compound was determined. The response to the co-application of the test compound and muscimol was normalized to the control muscimol response as a percentage of the control. A potentiation effect was indicated by a value >100% of the control response. EC50 values were calculated using the four parameter logistic equation, where E was the amplitude of the muscimol-induced current in the presence of the anesthetic at concentration [A], EMAX was the amplitude of the response in the presence of a maximally effective concentration of the anesthetic, EC50 was the concentration of anesthetic producing a half-maximal enhancement of the muscimol-induced response and nH was the Hill coefficient. [drawing 1]

Data set [6] can be described thus: In vitro metabolic half-life in dog whole blood. In kind it is in vitro ADME, Beagle dog. The protocol: Human whole blood stability experiments were conducted in whole blood from four human donors (male, 18–25 years). Single experiments were conducted with pooled blood from Sprague-Dawley rats (male, 8 weeks, n = 3), New Zealand White rabbits (male, 8–10 weeks, n = 3), Beagle dogs (male, 2–3 years, n = 3) and Cynomolgus monkeys (male, 3–4 years, n = 3). All the blood samples were provided by Xuzhou Medical College. A 1.35-ml aliquot of blood was warmed at 37°C for 5 min and hypnotic (from a 40 mM stock in DMSO solution) was added to a final concentration of 200 µM. After the specified incubation time, a 150-µl sample was removed and the metabolic reaction was quenched using 150-µl acetonitrile. Zero time-point samples were prepared by adding 150-µl acetonitrile (using a 4 mM stock in DMSO) to 150-µl blood before addition of the hypnotic. The quenched samples were centrifuged, and the supernatant was separated and stored at −20°C until analyzed. Hypnotic concentrations in thawed samples were determined by high-performance liquid chromatography using a 3-µm phenyl 4.6×50-mm C-A-25, ACE column with the UV detector set at 240 nm. A linear gradient 20–45% acetonitrile in water with 0.05% trifluoroacetic acid was run for more than 20 min at a flow rate of 1 ml/min. The lower limit of quantitation of this assay is 3 µM and the accuracy within 15% at 10 µM. The metabolic half-lives were quantified from the incubation time-dependent change in drug concentration.

Usually EC50 stands for the concentration that produces a half-maximal response.

`CCOc1cc(CC(=O)OCC(F)(F)F)ccc1OCC(=O)N(CC)CC` [Compound 5j, 2,2,2-trifluoroethyl 2-(4-(2-(diethylamino)-2-oxoethoxy)-3-ethoxyphenyl)acetate]: the “Duration of LORR” value in the data set on rat [1] (2× HD50 dose, mean ± SD) amounted to 66.5 ± 8.7 s; in the data set with rabbits [3] (2× HD50 dose, mean ± SD), 208.3 ± 19.8 s. In addition, the Time to walk with rat [1] (2× HD50 dose, mean ± SD) is 14.2 ± 5.4 s; with rabbits [3] (2× HD50 dose, mean ± SD) it was 15.5 ± 7.5 s. The “time to behavioral recovery” value with rat [1] (2× HD50 dose, mean ± SD) was 22.8 ± 3.2 s. Also, the HD50 in the data set on rat [1] (IV, 95% confidence limits) is given as 12.9 (10.6∼13.7) mg/kg; with rabbits [3] (IV, 95% confidence limits) it was 6.2 (4.7∼7.0) mg/kg. The TI in the data set with rat [2] turned out to be 13.3. Further, the “duration of LORR after cessation of infusion” value stood at 125.8 ± 57.6 s in the data set with rabbits [4] (1-h IV infusion), 132.9 ± 56.2 s with rabbits [4] (3-h IV infusion) and 117.5 ± 47.2 s in the data set with rabbits [4] (20-min IV infusion at half the HD50 per min after 2× HD50 induction). In addition, the “time to walk after infusion” value in the data set with rabbits [4] (20-min IV infusion) was 15.5 ± 7.55 s. Moreover, the “maximum potentiation relative to that of propanidid” value in data set [5] is listed as approximately 150%. Also, in data set [5], the “maximum potentiation relative to that produced by propofol” value is given as “approximately 50%”. For the same molecule, in data set [5] (patch clamp, read-out: EC50, potentiation of EC20 muscimol evoked chloride currents), the EC50 came to 12 µM. In data set [6] (dog blood), the “stability in blood (in words)” value is “stable”. For the same molecule, the half-life at 200 µM in data set [6] (male, whole blood, Beagle dog (n = 3), 37°C, 200 µM, read-out: Mean t1/2 Value) is more than 1 h.
